Results on 26 compounds are retold here after US20050197350A1, “Novel quinoline, tetrahydroquinazoline, and pyrimidine derivatives and methods of treatment related to the use thereof” (TAISHO PHARMACEUTICAL CO., LTD., priority 2003, published 2005).

The target of the test is MCH receptor (Homo sapiens, UniProt Q99705). The test is described as follows: High throughput functional screening FLIPR/FDSS6000 (intracellular Ca2+ evoked by MCH). Format: cell-based. Conditions: FLIPR/FDSS, antagonist activity vs 50 nM MCH. From the text:
High Throughput Functional Screening: FLIPR™
This assay utilized a non-endogenous, constitutively active version of the MCH receptor.
The concentration of free Ca^2+ in the cytosol of any cell is extremely low, whereas its concentration in the extracellular fluid and endoplasmic reticulum (ER) is very high. Thus, there is a large gradient tending to drive Ca^2+ into the cytosol across both the plasma membrane and ER. The FLIPR™ and FDSS6000™ systems (Molecular Devices Corporation, […] Photonics K.K.) are designed to perform functional cell-based assays, such as the measurement of intracellular calcium for high-throughput screening. The measurement of fluorescent is associated with calcium release upon activation of the Gq-coupled receptors.
Fluorometric Imaging Plate Reader system was used to allow for rapid, kinetic measurements of intracellular fluorescence in 96 well microplates (or 384 well microplates). Simultaneous measurements of fluorescence in all wells can be made by FLIPR or FDSS6000™ every second with high sensitivity and precision. These systems are ideal for measuring cell-based functional assays such as monitoring the intracellular calcium fluxes that occur within seconds after activation of the Gq coupled receptor.
Briefly, the cells are seeded into 96 well at 5.5×10^4 cells/well with complete culture media (Dulbecco's Modified Eagle Medium with 10% fetal bovine serum, 2 mM L-glutamine, 1 mM sodium pyruvate and 0.5 mg/ml G418, pH 7.4) for the assay next day. On the day of assay, the media is removed and the cells are incubated with 100 μl of loading buffer (4 μM Fluo4-AM in complete culture media containing 2.5 mM Probenicid, 0.5 mg/ml and 0.2% bovine serum albumin) in 5% CO2 incubator at 37° C. for 1 hr. The loading buffer is removed, and the cells are washed with wash buffer (Hank's Balanced Salt Solution containing 2.5 mM Probenicid, 20 mM HEPES, 0.5 mg/ml and 0.2% bovine serum albumin, pH 7.4)). One hundred fifty μl of wash buffer containing various concentrations of test compound is added to the cells, and the cells are incubated in 5% CO2 incubator at 37° C. for 30 min. […] 530 nm for 290 second. When antagonist activity of compound is tested, 50 nM of MCH is used.
Use of FLIPR™ and FDSS6000™ can be accomplished by following manufacturer's instruction (Molecular Device Corporation and […] Photonics K.K.).

[1] abbreviates: class by percent of control at 10^−7 M or IC50, table after the classification, read-out: class.
The mark [2] stands for this setting: representative examples, read-out: IC50.

SMILES strings stand for the structures. Where a name gives a salt, the structure may show the parent alone. Read-outs that look alike come from different tables or passages of the source. Where only a bound is given, the exact number is not on record here.

For the compound `CN(C)c1ccnc(N[C@H]2CC[C@@H](NCc3ccc(Br)cc3OC(F)(F)F)CC2)n1` [Example 17, N^2-[cis-4-(4-Bromo-2-trifluoromethoxy-benzyl)-amino-cyclohexyl]-N^4,N^4-dimethyl-pyrimidin-2,4-diamine dihydrochloride], the IC50 under setting [1] lay within 0.05 to 0.2 µM. Turning to `CN(C)c1ccnc(N[C@H]2CC[C@@H](NCCc3ccc(Br)cc3OC(F)(F)F)CC2)n1` [Example 18, N^2-{cis-4-[2-(4-Bromo-2-trifluoromethoxy-phenyl)-ethylamino]-cyclohexyl}-N^4,N^4-dimethyl-pyrimidine-2,4-diamine dihydrochloride], under setting [1], the IC50 was less than 0.05 µM. With `Cc1cnc(N[C@H]2CC[C@@H](NC(=O)c3ccc(F)c(F)c3)CC2)nc1N(C)C` [Example 2524, N-(cis-4-{[4-(Dimethylamino)-5-methylpyrimidin-2-yl]amino}cyclohexyl)-3,4-difluorobenzamide hydrochloride], the IC50 under setting [2] was determined as 0.0021 µM. Still for that read-out and setting: with `Cc1cccc(C(=O)N[C@H]2CC[C@@H](Nc3nc(C)cc(N(C)C)n3)CC2)c1` [Example 2526, N-(cis-4-{[4-(Dimethylamino)-6-methylpyrimidin-2-yl]amino}cyclohexyl)-3-methylbenzamide trifluoroacetate] the figure was 0.0076 µM. `O=C(N[C@H]1CC[C@@H](Nc2ccc3ccccc3n2)CC1)c1ccc(F)c(F)c1` [Example 3031, 3,4-Difluoro-N-[cis-4-(quinolin-2-ylamino)-cyclohexyl]-benzamide hydrochloride]: the IC50 under setting [1] is less than 0.05 µM.

With `O=C(N[C@H]1CC[C@@H](Nc2ccc3ccccc3n2)CC1)c1cccnc1Oc1ccccc1` [Example 3032, 2-Phenoxy-N-[cis-4-(quinolin-2-ylamino)-cyclohexyl]-nicotinamide hydrochloride], under setting [1], the IC50 is less than 0.05 µM. Same read-out and setting: with `Cc1cccc(C(=O)N[C@H]2CC[C@@H](Nc3ccc4ccccc4n3)CC2)c1` [Example 3033, 3-Methyl-N-[cis-4-(quinolin-2-ylamino)-cyclohexyl]-benzamide hydrochloride] the figure was less than 0.05 µM; with `O=C(N[C@H]1CC[C@@H](Nc2ccc3ccccc3n2)CC1)c1cccc(Cl)c1` [Example 3035, 3-Chloro-N-[cis-4-(quinolin-2-ylamino)-cyclohexyl]-benzamide hydrochloride], less than 0.05 µM; with `O=C(N[C@H]1CC[C@@H](Nc2ccc3ccccc3n2)CC1)c1csc([N+](=O)[O-])c1` [Example 3036, 5-Nitro-thiophene-3-carboxylic acid [cis-4-(quinolin-2-ylamino)-cyclohexyl]-amide hydrochloride], less than 0.05 µM. Still for that read-out and setting: under `O=C(N[C@H]1CC[C@@H](Nc2ccc3ccccc3n2)CC1)c1cccnc1Cl` [Example 3037, 2-Chloro-N-[cis-4-(quinolin-2-ylamino)-cyclohexyl]-nicotinamide hydrochloride] stands more than 0.2 µM. Same read-out and setting: under `O=C(N[C@H]1CC[C@@H](Nc2ccc3ccccc3n2)CC1)c1ccc(F)c(Cl)c1` [Example 3038, 3-Chloro-4-fluoro-N-[cis-4-(quinolin-2-ylamino)-cyclohexyl]-benzamide hydrochloride] stands less than 0.05 µM. For `COc1cc(OC)cc(C(=O)N[C@H]2CC[C@@H](Nc3ccc4ccccc4n3)CC2)c1` [Example 3039, 3,5-Dimethoxy-N-[cis-4-(quinolin-2-ylamino)-cyclohexyl]-benzamide hydrochloride], the IC50 under setting [1] was less than 0.05 µM. Still for that read-out and setting: with `O=C(N[C@H]1CC[C@@H](Nc2ccc3ccccc3n2)CC1)c1ccc(Cl)c(Cl)c1` [Example 3040, 3,4-Dichloro-N-[cis-4-(quinolin-2-ylamino)-cyclohexyl]-benzamide hydrochloride] the figure was less than 0.05 µM; with `O=C(N[C@H]1CC[C@@H](Nc2ccc3ccccc3n2)CC1)c1ccc2nonc2c1` [Example 3041, Benzo[2,1,3]oxadiazole-5-carboxylic acid-[cis-4-(quinolin-2-ylamino)-cyclohexyl]-amide hydrochloride], less than 0.05 µM; with `Cn1cc([N+](=O)[O-])cc1C(=O)N[C@H]1CC[C@@H](Nc2ccc3ccccc3n2)CC1` [Example 3042, 1-Methyl-4-nitro-1H-pyrrole-2-carboxylic acid [cis-4-(quinolin-2-ylamino)-cyclohexyl]-amide hydrochloride], less than 0.05 µM.

With `O=C(N[C@H]1CC[C@@H](Nc2ccc3ccccc3n2)CC1)C1c2ccccc2Oc2ccccc21` [Example 3043, 9H-Xanthene-9-carboxylic acid [cis-4-(quinolin-2-ylamino)-cyclohexyl]-amide hydrochloride], the IC50 under setting [1] was less than 0.05 µM.

With `O=C(N[C@H]1CC[C@@H](Nc2ccc3ccccc3n2)CC1)c1ccc(-c2ccc(Cl)cc2)o1` [Example 3044, 5-(4-Chloro-phenyl)-furan-2-carboxylic acid [cis-4-(quinolin-2-ylamino)-cyclohexyl]-amide hydrochloride], the IC50 under setting [1] is 0.05 to 0.2 µM. Consider `O=C(N[C@H]1CC[C@@H](Nc2ccc3ccccc3n2)CC1)c1cccc([N+](=O)[O-])c1` [Example 3045, 3-Nitro-N-[cis-4-(quinolin-2-ylamino)-cyclohexyl]-benzamide hydrochloride], for which the IC50 under setting [1] is less than 0.05 µM. In the case of `Cc1cc(C(=O)N[C@H]2CC[C@@H](Nc3ccc4ccccc4n3)CC2)ccc1F` [Example 3046, 4-Fluoro-3-methyl-N-[cis-4-(quinolin-2-ylamino)-cyclohexyl]-benzamide hydrochloride], the IC50 under setting [1] was less than 0.05 µM. Still for that read-out and setting: under `O=C(N[C@H]1CC[C@@H](Nc2ccc3ccccc3n2)CC1)c1cccc(Br)c1` [Example 3047, 3-Bromo-N-[cis-4-(quinolin-2-ylamino)-cyclohexyl]-benzamide hydrochloride] stands less than 0.05 µM. The same measure, in the same setting: with `O=C(N[C@H]1CC[C@@H](Nc2ccc3ccccc3n2)CC1)c1cccnc1Oc1ccccc1Br` [Example 3048, 2-(2-Bromophenoxy)-N-[cis-4-(quinolin-2-ylamino)-cyclohexyl]-nicotinamide hydrochloride] the figure was less than 0.05 µM; with `N#Cc1cccc(C(=O)N[C@H]2CC[C@@H](Nc3ccc4ccccc4n3)CC2)c1` [Example 3049, 3-Cyano-N-[cis-4-(quinolin-2-ylamino)-cyclohexyl]-benzamide hydrochloride], less than 0.05 µM; with `O=C(N[C@H]1CC[C@@H](Nc2ccc3ccccc3n2)CC1)c1cccc(C(F)(F)F)c1` [Example 3050, N-[cis-4-(Quinolin-2-ylamino)-cyclohexyl]-3-trifluoromethyl-benzamide hydrochloride], less than 0.05 µM.

Turning to `Cc1cccc(OCC(=O)N[C@H]2CC[C@@H](Nc3ccc4ccccc4n3)CC2)c1` [Example 3051, N-[cis-4-(Quinolin-2-ylamino)-cyclohexyl]-2-m-tolyloxy-acetamide hydrochloride], under setting [1], the IC50 is less than 0.05 µM.

Take `O=C(N[C@H]1CC[C@@H](Nc2ccc3ccccc3n2)CC1)C(c1ccccc1)c1ccccc1` [Example 3052, 2,2-Diphenyl-N-[cis-4-(quinolin-2-ylamino)-cyclohexyl]-acetamide hydrochloride]: the IC50 under setting [1] is less than 0.05 µM. The same measure, in the same setting: under `O=C(N[C@H]1CC[C@@H](Nc2ccc3ccccc3n2)CC1)c1ccc(Br)o1` [Example 3053, 5-Bromo-furan-2-carboxylic acid [cis-4-(quinolin-2-ylamino)-cyclohexyl]-amide hydrochloride] stands less than 0.05 µM.
